The supplement of paper PMC10307832

Tests used:
Assay in all cases: relative viability (nuclei count vs DMSO), 5 days (fraction); higher = more cells survive
NCI-H2085 = tested on: NCI-H2085
In short: (§1)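 Lung cancer cell lines were seeded in 1536-well plates and dosed by pin tool the next day, with either a single drug or a fixed anchor-drug dose combined with five library-drug doses (not always all listed) spaced in √10 steps. Five days later, one step fixed the cells and stained their nuclei (final 0.05% Triton X-100, 1% formaldehyde, 1 ug/ml Hoechst), and nuclei were counted on 4× images. Relative viability is the nuclei count in treated wells divided by the count in vehicle wells, and each value is the median of duplicate plates.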

NCI-H1755 = tested on: NCI-H1755
In short: as §1

UMC-11 = tested on: UMC-11
In short: as §1

NCI-H358 = tested on: NCI-H358
In short: as §1

NCI-H460 = tested on: NCI-H460
In short: as §1

LU99A = tested on: LU99A
In short: as §1

SW 900 = tested on: SW 900
In short: as §1

LCLC-97TM1 = tested on: LCLC-97TM1
In short: as §1

NCI-H2170 = tested on: NCI-H2170
In short: as §1

NCI-H1915 = tested on: NCI-H1915
In short: as §1

A-427 = tested on: A-427
In short: as §1

NCI-H2342 = tested on: NCI-H2342
In short: as §1

HOP-62 = tested on: HOP-62
In short: as §1

LC-2-ad = tested on: LC-2-ad
In short: as §1

COR-L 105 = tested on: COR-L 105
In short: as §1

HCC-366 = tested on: HCC-366
In short: as §1

HCC-78 = tested on: HCC-78
In short: as §1

NCI-H1944 = tested on: NCI-H1944
In short: as §1

NCI-H1793 = tested on: NCI-H1793
In short: as §1

LXF-289 = tested on: LXF-289
In short: as §1

EPLC-272H = tested on: EPLC-272H
In short: as §1

NCI-H1792 = tested on: NCI-H1792
In short: as §1

SK-LU-1 = tested on: SK-LU-1
In short: as §1

NCI-H1975 = tested on: NCI-H1975
In short: as §1

CC(C)Oc1cc(Nc2nc(N[C@@H](C)c3ccc(F)cn3)ncc2Cl)n[nH]1 [AZ23] + Nc1ncn([C@H]2C[C@H](O)[C@@H](CO)O2)c(=O)n1 [Decitabine] (partner 2 µM)
relative viability (NCI-H2085; first compound 0.01 µM): 0.565
relative viability (NCI-H2085; first compound 0.03162 µM): 0.539
relative viability (NCI-H2085; first compound 0.3162 µM): 0.5
relative viability (NCI-H1755; first compound 0.01 µM): 0.844
relative viability (NCI-H1755; first compound 0.03162 µM): 0.705
relative viability (NCI-H1755; first compound 0.3162 µM): 0.697
relative viability (UMC-11; first compound 0.01 µM): 0.562
relative viability (UMC-11; first compound 0.03162 µM): 0.747
relative viability (UMC-11; first compound 0.3162 µM): 0.587
relative viability (NCI-H358; first compound 0.01 µM): 0.261
relative viability (NCI-H358; first compound 0.03162 µM): 0.214
relative viability (NCI-H358; first compound 0.3162 µM): 0.179
relative viability (NCI-H460; first compound 0.01 µM): 0.489
relative viability (NCI-H460; first compound 0.03162 µM): 0.514
relative viability (NCI-H460; first compound 0.3162 µM): 0.55
relative viability (LU99A; first compound 0.01 µM): 1.03
relative viability (LU99A; first compound 0.03162 µM): 0.85
relative viability (LU99A; first compound 0.3162 µM): 0.829
relative viability (SW 900; first compound 0.01 µM): 0.442
relative viability (SW 900; first compound 0.3162 µM): 0.352
relative viability (LCLC-97TM1; first compound 0.01 µM): 0.273
relative viability (LCLC-97TM1; first compound 0.03162 µM): 0.212
relative viability (LCLC-97TM1; first compound 0.3162 µM): 0.233
relative viability (NCI-H2170; first compound 0.01 µM): 0.482
relative viability (NCI-H2170; first compound 0.03162 µM): 0.475
relative viability (NCI-H2170; first compound 0.3162 µM): 0.483
relative viability (NCI-H1915; first compound 0.01 µM): 0.293
relative viability (NCI-H1915; first compound 0.03162 µM): 0.272
relative viability (NCI-H1915; first compound 0.3162 µM): 0.269
relative viability (A-427; first compound 0.01 µM): 0.508
relative viability (A-427; first compound 0.03162 µM): 0.558
relative viability (A-427; first compound 0.3162 µM): 0.591
relative viability (NCI-H2342; first compound 0.01 µM): 0.716
relative viability (NCI-H2342; first compound 0.03162 µM): 0.778
relative viability (NCI-H2342; first compound 0.3162 µM): 0.649
relative viability (HOP-62; first compound 0.01 µM): 0.282
relative viability (HOP-62; first compound 0.03162 µM): 0.21
relative viability (HOP-62; first compound 0.3162 µM): 0.195
relative viability (LC-2-ad; first compound 0.01 µM): 1.01
relative viability (LC-2-ad; first compound 0.03162 µM): 0.862
relative viability (LC-2-ad; first compound 0.3162 µM): 0.782
relative viability (COR-L 105; first compound 0.01 µM): 0.547
relative viability (COR-L 105; first compound 0.03162 µM): 0.65
relative viability (COR-L 105; first compound 0.3162 µM): 0.708
relative viability (HCC-366; first compound 0.01 µM): 0.319
relative viability (HCC-366; first compound 0.03162 µM): 0.373
relative viability (HCC-366; first compound 0.3162 µM): 0.333
relative viability (HCC-78; first compound 0.01 µM): 0.725
relative viability (HCC-78; first compound 0.03162 µM): 0.777
relative viability (HCC-78; first compound 0.3162 µM): 0.728
relative viability (NCI-H1944; first compound 0.01 µM): 0.456
relative viability (NCI-H1944; first compound 0.03162 µM): 0.46
relative viability (NCI-H1944; first compound 0.3162 µM): 0.433
relative viability (NCI-H1793; first compound 0.01 µM): 0.594
relative viability (NCI-H1793; first compound 0.03162 µM): 0.559
relative viability (NCI-H1793; first compound 0.3162 µM): 0.414
relative viability (LXF-289; first compound 0.01 µM): 0.469
relative viability (LXF-289; first compound 0.03162 µM): 0.374
relative viability (LXF-289; first compound 0.3162 µM): 0.403
relative viability (EPLC-272H; first compound 0.03162 µM): 0.344
relative viability (EPLC-272H; first compound 0.3162 µM): 0.389
relative viability (NCI-H1792; first compound 0.01 µM): 0.462
relative viability (NCI-H1792; first compound 0.03162 µM): 0.549
relative viability (NCI-H1792; first compound 0.3162 µM): 0.48
relative viability (SK-LU-1; first compound 0.03162 µM): 0.651
relative viability (SK-LU-1; first compound 0.3162 µM): 0.643
relative viability (NCI-H1975; first compound 0.01 µM): 0.409
relative viability (NCI-H1975; first compound 0.03162 µM): 0.451
relative viability (NCI-H1975; first compound 0.3162 µM): 0.414
